# Results from patent US7064139B2, “Method for treating retroviral infections” (Uniroyal Chemical Company, Inc., priority 2001, dated 2006).
# What was measured:
# HIV-1 (IIIB) = test: microbe, parasite or virus in culture; assay type: cell-based; details: for EC50 (ug/ml) HIV-1 / EC50: CEM cells, syncytium formation, day four post infection; for HIV-1 % Protection: protection of CEM cells against virus-induced cytopathicity at the concentration in the previous column; for EC50: Human immunodeficiency virus 1, IIIB, CCRF-CEM, read-out: EC50 (ug/ml) HIV-1
# In short: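 Human T-lymphoblast CEM cells at roughly 300,000 cells per ml were infected with about 100 CCID50 of HIV-1 (IIIB). Then 100 μl of the infected suspension went into 200 μl microtiter wells holding 100 μl of 5-fold serial compound dilutions. Inhibition of syncytium formation was scored microscopically on day four post infection, and protection against virus-induced cytopathicity was recorded.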
# HIV-2 (ROD) = test: Inhibition of HIV-2 syncytium formation in CEM cells; assay type: cell-based; details: for EC50 (ug/ml) HIV-2 / EC50: CEM cells, syncytium formation, day four post infection; for HIV-2 % Protection: protection of CEM cells against virus-induced cytopathicity at the concentration in the previous column; for EC50: Human immunodeficiency virus 2, CCRF-CEM, read-out: EC50 (ug/ml) HIV-2
# In short: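 Human T-lymphoblast CEM cells, suspended at roughly 300,000 cells per ml of culture medium, were infected with about 100 CCID50 of HIV-2 (ROD). Aliquots of 100 μl of infected cells were placed in 200 μl microtiter wells holding 100 μl of serial 5-fold compound dilutions, and syncytium formation was scored microscopically four days after infection.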
# Davis strain CMV = test: Reduction of CMV-induced cytopathicity in HEL cells; assay type: cell-based, human cytomegalovirus (HCMV); details: HEL cells; for Antiviral EC50 (ug/ml) Davis strain CMV / EC50: virus-induced cytopathicity after seven days; for EC50: Human betaherpesvirus 5, 168 h, read-out: Antiviral EC50 (ug/ml) Davis strain CMV; for Antiviral % Inhibition Davis strain CMV: estimate of percent protection at the concentration in the previous column
# In short: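 Confluent HEL cells were infected with 100 PFU/well CMV for 1–2 h, then washed and kept in MEM with 2% FCS and test compound. EC50 is the concentration cutting virus-induced cytopathicity by 50% versus untreated control at day 7. Where cytotoxicity interfered, percent protection at the stated concentration is given.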
Structure (SMILES),EC50 (ug/ml) HIV-1 (HIV-1 (IIIB)),HIV-1 % Protection (HIV-1 (IIIB)),EC50 (ug/ml) HIV-2 (HIV-2 (ROD)),HIV-2 % Protection (HIV-2 (ROD)),Antiviral EC50 (ug/ml) Davis strain CMV (Davis strain CMV),EC50 (HIV-1 (IIIB)),EC50 (HIV-2 (ROD)),EC50 (Davis strain CMV),Antiviral % Inhibition Davis strain CMV (Davis strain CMV)
Cc1ccc(C)c(C(C)[S+]([O-])c2cccc[n+]2[O-])c1 (stereo not drawn) [Compound 103],>.8 µg/mL,0.0%,>0.8 µg/mL,0.0%,4.3 µg/mL,–,–,–,–
Cc1ccccc1C(C)S(=O)(=O)c1cccc[n+]1[O-] (stereo not drawn) [Compound 104],40.00 µg/mL,–,2.5 µg/mL,–,34.5 µg/mL,–,–,–,–
"O=S(=O)(c1cccc[n+]1[O-])C(Cl)c1ccccc1 (stereo not drawn) [Compound 105, 2-(alpha-phenyl-alpha-chloromethylsulfonyl)pyridine-N-oxide]",16.00 µg/mL,–,2.5 µg/mL,–,23.0 µg/mL,–,–,–,–
"Cc1ccc(C)c(C(Cl)S(=O)(=O)c2ccccn2)c1 (stereo not drawn) [Compound 106, 2-((2,5-dimethylphenyl)chloromethylsulphonyl)pyridine]",–,–,–,0.0%,–,0.9 µg/mL,> 4 µg/mL,20 µg/mL,–
"CCc1cccc2c(C)cc(S(=O)(=O)C(C)c3ccccc3)nc12 (stereo not drawn) [Compound 107, 8-ethyl-4-methyl-2-[(1-phenylethyl)sulfonyl]-quinoline]",–,–,–,–,–,0.65 µg/mL,> 100 µg/mL,> 20 µg/mL,0.0%
"Cc1ccc(C)c(C(C)S(=O)(=O)c2cc(C)cc[n+]2[O-])c1 (stereo not drawn) [Compound 108, 2-[1-(2,5-Dimethylphenyl)ethylsulfonyl]-4-methylpyridine N-oxide]",–,–,–,37.5%,–,0.75 µg/mL,≥ 20 µg/mL,38 µg/mL,–
"Cc1ccc(C)c(C(C)S(=O)(=O)c2ccc(C)c[n+]2[O-])c1 (stereo not drawn) [Compound 110, 2-[1-(2,5-Dimethylphenyl)ethylsulfonyl]-5-methylpyridine N-oxide]",–,–,–,0.0%,–,5.5 µg/mL,> 100 µg/mL,50 µg/mL,–
"O=S(=O)(c1ccc(Cl)c[n+]1[O-])C(Cl)c1ccccc1 (stereo not drawn) [Compound 114, 2-(Phenylchloromethylsulfonyl)-5-chloropyridine N-oxide]",–,0.0%,–,0.0%,–,> 0.8 µg/mL,> 0.8 µg/mL,> 20 µg/mL,20.0%
Cc1ccc[n+]([O-])c1S(=O)(=O)C(C)c1ccccc1 (stereo not drawn) [Compound 115],>20 µg/mL,0.0%,>20.00 µg/mL,0.0%,>50 µg/mL,–,–,–,40.0%
Cc1ccc[n+]([O-])c1S(=O)(=O)Cc1ccccc1Cl [Compound 117],3.40 µg/mL,–,>4.0 µg/mL,0.0%,12.0 µg/mL,–,–,–,–
Cc1cc([N+](=O)[O-])ccc1CS(=O)(=O)c1c(C)ccc[n+]1[O-] [Compound 118],>4 µg/mL,–,>4.0 µg/mL,0.0%,>5 µg/mL,–,–,–,10.0%
Cc1ccc[n+]([O-])c1S(=O)(=O)C(C)c1ccccc1Cl (stereo not drawn) [Compound 120],3.30 µg/mL,–,>20.00 µg/mL,0.0%,12.5 µg/mL,–,–,–,–
Cc1ccc(C)c(C(Cl)S(=O)(=O)c2c(Cl)ccc[n+]2[O-])c1 (stereo not drawn) [Compound 125],>4 µg/mL,0.0%,>4.0 µg/mL,0.0%,31.5 µg/mL,–,–,–,–
